Ten molecules from US5639904A, “1-aryloxy-3-alkylamino-2-propanol nitrate esters, the use thereof and corresponding pharmaceutical composition” (Prodesfarma, S.A., priority 1993, dated 1997) can be followed below.

Like-named read-outs stand apart in the source and are kept apart here.

Holding throughout (assay type): cell-based
Assay [1] deals with helical strips of swine coronary artery (calcium-induced contraction). Kind of assay: In vitro coronary vasodilator activity: antagonism of contractions induced by calcium (1.5 mM). The settings on record: Sus scrofa; for IC50: read-out: inhibitory concentration 50 (IC50), effect on Ca2+-induced contractions in swine coronary artery. As to the method: (§1) The coronary vasodilator activity of the synthesized products was determined in vitro from their capacity to antagonize the contractions induced by a) potassium (35 mM) b) calcium (1.5 mM) and c) serotonin (1 mM) in helical strips of swine coronary artery, using Nitroglycerine and Nicorandil as reference drugs (Table 1).

For assay [2], the system named is helical strips of swine coronary artery (serotonin-induced contraction). Nature of the assay: In vitro coronary vasodilator activity: antagonism of contractions induced by serotonin (1 mM). The settings on record: Sus scrofa; for IC50: read-out: inhibitory concentration 50 (IC50), effect on serotonin-induced contractions in swine coronary artery. As to the method:
as §1

In assay [3] the test system is helical strips of swine coronary artery (potassium-induced contraction). Kind of assay: In vitro coronary vasodilator activity: antagonism of contractions induced by potassium (35 mM). The settings on record: Sus scrofa; for IC50: read-out: inhibitory concentration 50 (IC50), effect on K+-induced contractions in swine coronary artery; for inhibition at 100 µM: read-out: inhibition of K+-induced contractions in swine coronary artery. As to the method: as §1

For assay [4], the target named is T1, β1-adrenergic (isolated guinea pig left auricle) (Cavia porcellus, UniProt H0W3H1).
T1 construct: electrically stimulated isolated left auricle of the guinea pig; from tissue; host or cells: isolated left auricle of guinea pig
Kind of assay: In vitro β1-adrenergic blocking activity: antagonism of isoprenaline-induced positive inotropic response in electrically stimulated isolated left auricle. The text has this: In parallel tests, the effect of the said compounds on the positive isoprenaline-induced inotropic response in electrically stimulated isolated left auricle of the guinea pig, as evidence of β1 -adrenergic blocking activity (Table 2) was established.
BLOCKING ACTIVITY IN VITRO

Setting [5] is: electrically stimulated isolated guinea pig left auricle, read-out: inhibitory concentration 50 (IC50), antagonism of isoprenaline-induced positive inotropic response.

T1 sequence (H0W3H1 1-470): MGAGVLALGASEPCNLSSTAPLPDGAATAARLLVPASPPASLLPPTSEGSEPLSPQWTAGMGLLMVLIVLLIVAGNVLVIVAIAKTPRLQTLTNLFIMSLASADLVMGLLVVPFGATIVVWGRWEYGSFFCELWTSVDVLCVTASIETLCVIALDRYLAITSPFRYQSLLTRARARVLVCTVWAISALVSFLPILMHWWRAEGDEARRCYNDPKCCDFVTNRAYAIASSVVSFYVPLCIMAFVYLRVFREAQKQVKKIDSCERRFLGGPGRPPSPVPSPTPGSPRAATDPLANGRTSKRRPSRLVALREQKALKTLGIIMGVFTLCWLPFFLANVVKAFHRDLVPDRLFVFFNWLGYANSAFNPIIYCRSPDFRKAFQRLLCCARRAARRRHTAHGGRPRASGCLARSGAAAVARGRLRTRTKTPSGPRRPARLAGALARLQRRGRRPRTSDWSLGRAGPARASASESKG

Take `CC(C)NCC(O)COc1ccc(CC(=O)OCCO[N+](=O)[O-])cc1` (stereo not drawn) [2-nitroxyethyl 4-[(2-hydroxy-3-isopropylamino)propoxy]phenyl acetate]: the IC50 in assay [1] (calcium 1.5 mM) stood at 13.1 µM; in assay [2] (serotonin 1 mM), 5.7 µM; in assay [3] (potassium 35 mM), 0.3 µM; in assay [4] (setting [5]), 7.6 µM.
As for `COCCc1ccc(OCC(O)CNC(C)C)cc1` (stereo not drawn) [Metoprolol, reference compound], the inhibition at 100 µM in assay [2] (serotonin 1 mM) is 20%; in assay [3] (at 0.1 mM, potassium 35 mM), 30%.
Consider `CC(C)NCC(O)COc1ccc(COCCCO[N+](=O)[O-])cc1` (stereo not drawn) [1-isopropylamino-3-[4-(3-nitroxy)propoxymethyl]phenoxy-2-propanol], for which, in assay [1] (at 30 μM, calcium 1.5 mM, read-out: inhibition of Ca2+-induced contractions in swine coronary artery), the inhibition at 30 µM came to 50%. Also, the IC50 in assay [2] (serotonin 1 mM) was determined as 6 µM; in assay [3] (potassium 35 mM) it was 7.1 µM; in assay [4] (setting [5]), 0.7 µM.
Regarding `CC(C)NCC(O)COc1ccc(COCC(CO[N+](=O)[O-])O[N+](=O)[O-])cc1` (stereo not drawn) [1-isopropylamino-3-[4-(2,3-dinitroxy)-propoxymethyl]phenoxy-2-propanol], the IC50 in assay [1] turned out to be 1.7 µM; in assay [2], 1.6 µM; in assay [3], 0.5 µM; in assay [4], 4.8 µM.
For `CC(C)NCC(O)COc1ccc(COCCO[N+](=O)[O-])cc1` (stereo not drawn) [1-isopropylamino-3-[4-(2-nitroxy)ethoxymethyl]phenoxy-2-propanol], the IC50 in assay [2] (serotonin 1 mM) came out at 13.3 µM; in assay [3] (potassium 35 mM) it was 3.4 µM; in assay [4] (setting [5]), 0.6 µM.
As to `O=C(NCCO[N+](=O)[O-])c1cccnc1` [Nicorandil, reference compound], the results for the IC50 in assay [1] (calcium 1.5 mM), in assay [2] (serotonin 1 mM) and in assay [3] (potassium 35 mM) were 169 µM, 14.7 µM and 49.7 µM, respectively.
Take `CC(C)NCC(O)COc1ccc2ccccc2c1CC(=O)NCCO[N+](=O)[O-]` (stereo not drawn) [2-(2-hydroxy-3-isopropylamino)propoxy-N-(2-nitroxyethyl)-1-naphthalene acetamide]: the inhibition at 10 µM in assay [1] (at 10 μM, calcium 1.5 mM, read-out: inhibition of Ca2+-induced contractions in swine coronary artery) is 20%. Besides, the inhibition at 100 µM in assay [2] (serotonin 1 mM) was 50%; in assay [4] (at 0.1 mM, electrically stimulated isolated guinea pig left auricle), 25%. For the same molecule, the IC50 in assay [3] (potassium 35 mM) is 28.6 µM.
Take `CC(C)NCC(O)COc1c(CC(=O)NCCO[N+](=O)[O-])ccc2ccccc12` (stereo not drawn) [1-(2-hydroxy-3-isopropylamino)propoxy-N-(2-nitroxyethyl)-2-naphthalene acetamide]: the IC50 in assay [3] (potassium 35 mM) was 40.7 µM.
In the case of `O=[N+]([O-])OCC(CO[N+](=O)[O-])O[N+](=O)[O-]` [Nitroglycerine, reference compound], the inhibition at 100 µM in assay [1] (at 0.1 mM, calcium 1.5 mM, read-out: inhibition of Ca2+-induced contractions in swine coronary artery) worked out at 50%. Also, the IC50 in assay [2] (serotonin 1 mM) was determined as 1 µM; in assay [3] (potassium 35 mM), 1.3 µM.
As for `CC(C)NCC(O)COc1ccc(CC(N)=O)cc1` (stereo not drawn) [Atenolol, reference compound], the inhibition at 100 µM in assay [3] is 25%. Moreover, the IC50 in assay [4] was 0.7 µM.
